Test results: patent US8901301B2, “Pyrrolo[2,3-]pyridine kinase inhibitors” (Plexxikon Inc., priority 2009, dated 2014)

Assays:
B-Raf = target: T1, B-Raf (Homo sapiens, UniProt P15056); experiment: Raf biochemical kinase assay (biotin-MEK1 phosphorylation), B-Raf; settings: 100 μM ATP
T1 construct: purchased Upstate Biotechnology
Description: (§1) Assays for biochemical and cell based activity are known in the art, for example, as described in PCT publication WO 2007/002433, the disclosure of which is hereby incorporated by reference as it relates to such assays. For example, the biochemical activity IC50 values are determined with respect to inhibition of A-Raf kinase activity, B-Raf kinase activity, c-Raf-1 kinase activity, or B-Raf V600E kinase activity, where inhibition of phosphorylation of a peptide substrate is measured as a function of compound concentration. Compounds to be tested are diluted in dimethyl sulfoxide to a concentration of 0.1 mM. These are serially diluted 15 μL into 30 μL of dimethyl sulfoxide seven times in 96 well plates for a total of 8 dilution points, and for each dilution point 1 μL is added to a well of an assay plate. Plates are prepared such that each well in a 384 well plate contains 1 μL of compound in 10 μL volume with 0.1 ng Raf enzyme (i.e. any of A-Raf, B-Raf, c-Raf-1 or B-Raf V600E, Upstate Biotechnology or prepared by methods known to one of skill in the art), 50 mM HEPES, pH 7.0, 50 mM NaCl, 2 mM MgCl2, 1 mM MnCl2, 0.01% Tween-20, 1 mM DTT, and 100 nM biotin-MEK1 as substrate. The reaction is started with addition of 10 μL of 200 μM ATP (i.e. final 100 μM ATP). After incubation of the kinase reaction for 45 minutes at room temperature, 5 μL/well of Stop Solution is added (25 mM Hepes pH 7.5, 100 mM EDTA, 0.01% BSA with donor beads (Streptavidin coated beads, Perkin Elmer), acceptor beads (Protein A coated, Perkin Elmer), and anti phosphor MEK1/2 antibody (CellSignal), each at final concentration 10 μg/mL). The plates are incubated for 3 hours at room temperature and read on Envision reader (Perkin Elmer). Phosphorylation of Mek1 results in binding of the anti-phosphor-MEK1/2 antibody and association of the donor and acceptor beads such that signal correlates with kinase activity. The signal vs. compound concentration is used to determine the IC50.

B-Raf V600E = target: T2, B-Raf V600E (Homo sapiens, UniProt P15056, V600E); experiment: Raf biochemical kinase assay (biotin-MEK1 phosphorylation), B-Raf V600E; settings: 100 μM ATP
T2 construct: purchased Upstate Biotechnology
Description: as §1

Kdr = Kdr (Homo sapiens, UniProt P35968); experiment: Biochemical inhibitory activity, other protein kinases: Kdr; settings: listing of the kinase means IC50 >1 μM
Src = Src (Homo sapiens, UniProt P12931); experiment: Biochemical inhibitory activity, other protein kinases: Src; settings: listing of the kinase means IC50 >1 μM
Fms = Fms (Homo sapiens, UniProt P07333); experiment: Biochemical inhibitory activity, other protein kinases: Fms; settings: listing of the kinase means IC50 >1 μM
[1] = Relative solubility by turbidity in aqueous buffers; type: physicochemical
Description: As an indication of relative solubility, the turbidity of compounds in aqueous solutions is assessed. To assess possible compound properties in different physiological compartments, such as stomach, intestine, and blood, a series of aqueous buffers with varying pH is used. Thus each compound is diluted into four different physiologically relevant buffers and solution turbidity is measured by spectrophotometry.
Compounds are dissolved at a concentration of 25 mM in dimethyl sulfoxide, then serially diluted 1:1 into a 96 well plate, diluting 10 times in pure dimethyl sulfoxide, with the final well of each row a dimethyl sulfoxide blank. In an assay plate, 99 μL of appropriate buffer is added to each well, and 1 μL of each sample dilution is added to the buffer, achieving a range of final total concentrations in aqueous solutions having different pH. The buffers used are Simulated Gastric Fluid (SGF-pH 1.5) 0.5M NaCl, pH 1.5; Simulated Intestinal fluid (SIF-pH 4.5 and pH 6.8) 0.05M NaH2PO4, pH 4.5 and 6.8; and Hepes Buffer (HEPES-pH 7.4) 10 mM HEPES, 150 mM NaCl, pH 7.4. Control compounds pyrene, estriol and propranolol HCl are also assessed. Plates are spun and then mixed for 1 minute, and the absorbance is read using a Tecan Safire II to read wavelengths in the visible range (490, 535, and 650 nm) at four locations per well, reflecting the degree of turbidity present. The average optical density for each wavelength in each well is graphed vs. compound concentration, and the concentration at which the curve crosses a threshold O.D. of 0.01 for each wavelength is reported as the endpoint turbidity assay result. The average of the three wavelengths is used to compare turbidity of compounds. Compounds are considered to have low solubility if the threshold concentration is <31.3 μM, moderate solubility if the threshold concentration is 31.3 μM to 250 μM, and high solubility if the threshold concentration is >250 μM.

CYP2D6 = target: T3, CYP2D6 (Homo sapiens, UniProt P10635); experiment: CYP inhibition (fluorescent substrate), CYP2D6; type: in vitro ADME; settings: substrate AMMC; read-out: Cyp IC50 (μM) 2D6
T3 construct: purchased BD Biosciences
Description: CYP (Cytochrome P450) enzymes are the major drug metabolizing enzymes present in the liver. The inhibition of CYP enzyme activity (IC50) for each of CYP1A2, CYP2C19, CYP2C9, CYP2D6, CYP3A4(BFC) and CYP3A4(BQ) is determined for compounds, where inhibition of metabolism of a known substrate leads to a decrease in the fluorescence of the metabolized product. The fluorescence of the product is monitored as a function of compound concentration. Compounds are dissolved in dimethyl sulfoxide to a concentration of 100 mM. These are diluted 1 μL into 82 μL of acetonitrile. An 11 μL aliquot of this solution is then added to 204 μL of cofactor mix (1.3% NADPH Regeneration system Solution A, 1.04% NADPH Regeneration system Solution B from BD Biosciences, 5% acetonitrile and 0.05% dimethyl sulfoxide). These are then serially diluted 1:1 (160 μL to 160 μL co-factor mix) for a total of 10 points. A 10 μL aliquot of this final mixture is dispensed into 384 well assay plates and incubated for 10 minutes at 37° C. […] Assay plates are incubated at 37° C. (CYP1A2-15 min; CYP2C9-45 min; CYP2C19, 2D6 and 3A4-30 min) and read in a Tecan Safire 2 plate reader (CYP1A2, 2C19 and 3A4 409 ex/460 em; CYP2C9 and 2D6 409 ex/530 em). The signal versus compound concentration is used to determine the IC50. The enzymes and substrates for this assay are obtained from BD Biosciences.

Raf kinases = experiment: Biochemical assay, Raf kinases as well as other kinases
Description: as §1

T2 sequence (P15056 whole entry V600E): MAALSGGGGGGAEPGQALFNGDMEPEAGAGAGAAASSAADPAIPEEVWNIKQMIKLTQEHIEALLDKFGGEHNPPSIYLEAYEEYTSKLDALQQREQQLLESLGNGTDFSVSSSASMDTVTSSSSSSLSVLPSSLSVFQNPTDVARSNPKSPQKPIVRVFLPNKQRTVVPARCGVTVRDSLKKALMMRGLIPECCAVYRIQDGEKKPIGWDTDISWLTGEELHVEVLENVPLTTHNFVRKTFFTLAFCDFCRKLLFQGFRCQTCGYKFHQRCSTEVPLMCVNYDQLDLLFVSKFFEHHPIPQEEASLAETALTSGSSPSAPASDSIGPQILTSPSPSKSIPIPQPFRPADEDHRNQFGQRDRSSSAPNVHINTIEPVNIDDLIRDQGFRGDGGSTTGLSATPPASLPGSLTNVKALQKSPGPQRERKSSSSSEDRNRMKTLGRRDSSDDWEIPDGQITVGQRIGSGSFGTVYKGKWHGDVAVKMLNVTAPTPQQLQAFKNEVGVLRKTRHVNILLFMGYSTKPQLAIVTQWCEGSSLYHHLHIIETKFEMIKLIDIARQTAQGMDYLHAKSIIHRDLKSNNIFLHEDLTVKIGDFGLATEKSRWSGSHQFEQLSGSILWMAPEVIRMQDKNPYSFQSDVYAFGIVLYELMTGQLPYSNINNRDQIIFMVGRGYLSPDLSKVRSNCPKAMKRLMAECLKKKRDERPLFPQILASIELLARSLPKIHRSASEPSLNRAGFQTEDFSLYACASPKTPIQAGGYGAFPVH
T1 sequence (P15056 whole entry): as the sequence (P15056 whole entry V600E) above, with E600V counted along it
Sequence of Kdr (P35968 20-1356, species assumed): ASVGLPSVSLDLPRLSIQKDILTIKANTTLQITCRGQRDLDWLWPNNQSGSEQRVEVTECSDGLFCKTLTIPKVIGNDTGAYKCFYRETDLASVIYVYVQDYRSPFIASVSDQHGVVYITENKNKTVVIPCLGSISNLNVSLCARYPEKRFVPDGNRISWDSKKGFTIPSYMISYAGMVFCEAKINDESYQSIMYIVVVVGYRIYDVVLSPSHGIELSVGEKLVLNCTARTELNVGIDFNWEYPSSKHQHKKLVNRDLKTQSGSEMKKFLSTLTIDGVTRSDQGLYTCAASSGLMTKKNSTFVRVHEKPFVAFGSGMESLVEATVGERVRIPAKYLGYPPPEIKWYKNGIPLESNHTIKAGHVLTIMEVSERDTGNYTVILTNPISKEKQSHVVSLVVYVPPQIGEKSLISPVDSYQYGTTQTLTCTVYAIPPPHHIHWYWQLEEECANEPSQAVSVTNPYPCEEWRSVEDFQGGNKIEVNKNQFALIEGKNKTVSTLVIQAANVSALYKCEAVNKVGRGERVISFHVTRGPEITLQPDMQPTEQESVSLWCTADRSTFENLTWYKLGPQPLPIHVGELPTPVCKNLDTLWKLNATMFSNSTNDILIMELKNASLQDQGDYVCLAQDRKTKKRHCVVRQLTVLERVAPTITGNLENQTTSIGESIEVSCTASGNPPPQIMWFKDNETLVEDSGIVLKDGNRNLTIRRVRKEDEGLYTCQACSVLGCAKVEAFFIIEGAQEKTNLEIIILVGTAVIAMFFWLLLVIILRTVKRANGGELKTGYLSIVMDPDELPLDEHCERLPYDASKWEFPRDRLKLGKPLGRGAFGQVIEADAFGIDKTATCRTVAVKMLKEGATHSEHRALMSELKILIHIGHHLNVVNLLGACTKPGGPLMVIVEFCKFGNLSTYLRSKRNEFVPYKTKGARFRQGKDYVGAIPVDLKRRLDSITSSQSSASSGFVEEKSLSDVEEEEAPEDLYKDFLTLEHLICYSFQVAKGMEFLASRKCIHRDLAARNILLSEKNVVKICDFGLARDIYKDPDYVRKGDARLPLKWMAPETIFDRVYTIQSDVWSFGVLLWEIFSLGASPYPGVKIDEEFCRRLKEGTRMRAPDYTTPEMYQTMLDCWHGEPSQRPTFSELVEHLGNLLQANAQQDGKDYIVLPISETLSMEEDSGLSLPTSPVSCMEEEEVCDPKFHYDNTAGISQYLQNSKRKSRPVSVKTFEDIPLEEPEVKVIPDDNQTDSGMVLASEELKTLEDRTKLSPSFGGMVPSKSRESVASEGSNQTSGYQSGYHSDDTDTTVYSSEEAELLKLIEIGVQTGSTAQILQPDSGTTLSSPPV
T3 sequence (P10635 whole entry): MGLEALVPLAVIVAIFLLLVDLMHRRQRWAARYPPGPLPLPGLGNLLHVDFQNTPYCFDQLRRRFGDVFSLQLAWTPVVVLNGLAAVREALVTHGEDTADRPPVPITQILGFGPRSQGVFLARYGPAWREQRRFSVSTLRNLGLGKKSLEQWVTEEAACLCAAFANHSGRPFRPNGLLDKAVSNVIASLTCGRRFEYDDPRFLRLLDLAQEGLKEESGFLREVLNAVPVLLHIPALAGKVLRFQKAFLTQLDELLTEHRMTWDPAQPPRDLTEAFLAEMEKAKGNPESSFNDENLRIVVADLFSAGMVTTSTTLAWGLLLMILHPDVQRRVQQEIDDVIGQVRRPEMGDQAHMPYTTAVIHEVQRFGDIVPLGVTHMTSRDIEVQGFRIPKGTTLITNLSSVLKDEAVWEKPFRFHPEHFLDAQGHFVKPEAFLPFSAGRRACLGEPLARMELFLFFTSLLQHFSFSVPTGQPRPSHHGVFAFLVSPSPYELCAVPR
Sequence of Fms (P07333 20-972, species assumed): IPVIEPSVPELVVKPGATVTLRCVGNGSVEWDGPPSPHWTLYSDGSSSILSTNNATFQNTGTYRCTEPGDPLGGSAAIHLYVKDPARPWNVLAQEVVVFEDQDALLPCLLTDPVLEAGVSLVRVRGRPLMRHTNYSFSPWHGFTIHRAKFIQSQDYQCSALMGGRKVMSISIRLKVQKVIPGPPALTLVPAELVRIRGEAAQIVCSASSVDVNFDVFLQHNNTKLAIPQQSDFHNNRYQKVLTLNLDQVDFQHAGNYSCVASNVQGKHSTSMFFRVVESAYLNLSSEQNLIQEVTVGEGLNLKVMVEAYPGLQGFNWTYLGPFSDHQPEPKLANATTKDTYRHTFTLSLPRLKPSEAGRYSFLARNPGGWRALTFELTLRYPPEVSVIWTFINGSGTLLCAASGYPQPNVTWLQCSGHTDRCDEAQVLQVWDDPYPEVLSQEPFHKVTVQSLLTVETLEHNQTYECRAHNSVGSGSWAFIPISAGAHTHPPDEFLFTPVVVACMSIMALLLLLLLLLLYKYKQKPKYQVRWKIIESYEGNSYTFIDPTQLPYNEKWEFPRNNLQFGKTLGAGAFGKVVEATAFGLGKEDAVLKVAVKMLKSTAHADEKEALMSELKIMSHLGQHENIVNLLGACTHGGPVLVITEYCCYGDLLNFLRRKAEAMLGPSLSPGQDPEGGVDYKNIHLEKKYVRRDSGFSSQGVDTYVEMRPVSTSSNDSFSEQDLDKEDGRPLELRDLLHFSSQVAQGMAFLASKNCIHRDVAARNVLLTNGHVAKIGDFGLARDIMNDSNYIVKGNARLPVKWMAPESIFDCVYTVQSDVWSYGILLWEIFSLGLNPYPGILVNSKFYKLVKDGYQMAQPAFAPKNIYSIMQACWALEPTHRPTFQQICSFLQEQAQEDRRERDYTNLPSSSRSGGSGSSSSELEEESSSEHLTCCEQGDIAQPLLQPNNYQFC
Sequence of Src (P12931 whole entry, species assumed): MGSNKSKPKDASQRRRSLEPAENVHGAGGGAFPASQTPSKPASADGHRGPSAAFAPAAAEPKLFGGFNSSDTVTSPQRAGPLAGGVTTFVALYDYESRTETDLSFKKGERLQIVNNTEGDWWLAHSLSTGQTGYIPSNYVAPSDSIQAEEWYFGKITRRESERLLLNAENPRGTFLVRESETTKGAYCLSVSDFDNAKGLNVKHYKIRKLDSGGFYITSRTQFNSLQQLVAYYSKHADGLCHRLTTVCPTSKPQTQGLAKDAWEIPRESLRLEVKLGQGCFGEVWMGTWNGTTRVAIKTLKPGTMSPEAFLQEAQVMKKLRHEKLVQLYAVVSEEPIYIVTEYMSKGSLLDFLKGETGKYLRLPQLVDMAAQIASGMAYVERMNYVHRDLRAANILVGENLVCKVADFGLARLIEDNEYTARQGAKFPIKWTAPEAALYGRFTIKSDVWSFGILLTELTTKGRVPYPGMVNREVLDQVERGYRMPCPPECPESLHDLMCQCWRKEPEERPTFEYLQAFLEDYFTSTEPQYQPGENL

For `CN(C)S(=O)(=O)Nc1ccc(F)c(C(=O)c2c[nH]c3ncc(C#N)cc23)c1F` [Compound P-0007, N,N-dimethylamino-sulfonic acid [3-(5-cyano-1H-pyrrolo[2,3-b]pyridine-3-carbonyl)-2,4-difluoro-phenyl]-amide], the IC50 (B-Raf) was < 1 µM, the IC50 (B-Raf V600E) was < 0.01 µM and the “Kinase having IC50 of >1 μM” value (Kdr) was “Kdr”. For the same compound, the “Kinase having IC50 of >1 μM” value (Src) was “Src”, the “Kinase having IC50 of >1 μM” value (Fms) was “Fms” and the “turbidity threshold (L, M, H) 4.5” value ([1]; pH 4.5 (Simulated Intestinal fluid)) was “M (moderate solubility if the threshold concentration is 31.3 μM to 250 μM)”. The “turbidity threshold (L, M, H) 6.8” value ([1]; pH 6.8 (Simulated Intestinal fluid)) was “H (high solubility if the threshold concentration is >250 μM)”, the “turbidity threshold (L, M, H) 7.4” value ([1]; pH 7.4 (Hepes Buffer)) was “H (high solubility if the threshold concentration is >250 μM)” and the IC50 (CYP2D6) was > 10 µM. For the same compound, the “Selectivity of inhibitory activity, Raf kinases versus other kinases” value (Raf kinases) was “selective activity to the Raf kinases”.
